We go through five molecules from patent US10435400B2, “2,4-disubstituted phenylene-1,5-diamine derivatives and applications thereof, and pharmaceutical compositions and pharmaceutically acceptable compositions prepared therefrom” (SHANGHAI HAIYAN PHARMACEUTICAL TECHNOLOGY CO., LTD., priority 2014, dated 2019).

The subject of data set [1] is A431 cells. The experiment in a line: ELISA cell activity, EGF-stimulated A431 cells.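 Also: Serum-starved A431 cells pretreated with compound for 1 h, then stimulated with EGF for 45 min, lysates read by ELISA (OD450 minus OD570), EGF-only wells as control.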 The format is cell-based. To be noted: Homo sapiens. On the technique in general: An ELISA detects its analyte on a solid surface through an enzyme-linked reagent.
Data set [2] can be described thus: In vivo pharmacokinetic test in rats. To be noted: male, SD, rat, plasma; for clearance / half-life: IV 1 mg/kg; for clearance: read-out: Clearance CL; for half-life: read-out: Half-life T½ (converted); for bioavailability: oral gavage 20 mg/kg vs IV 1 mg/kg, read-out: Oral relative bioavailability F; for AUC / Cmax: route not given (IV 1 mg/kg, oral gavage 20 mg/kg); for AUC: read-out: Area under the curve AUC; for Cmax: read-out: Maximum plasma concentration Cmax. An excerpt:
(§1) LC/MS/MS method was applied for the determination of the drug concentration in plasma at different times after the example compounds were orally and intravenously administered to rats or mice in order to study the pharmacokinetic behavior of the compounds of the invention in vivo in rats or mice and evaluate their pharmacokinetic characteristics.
(§2) Test Animals: healthy Adult male SD rats (weight 200-300 g, 6, fasted) or male CD1 mice (weight 20-30 g, 18, free access to water and food), provided by SLAC company;
(§3) Administration and Dosage: (1 mg/kg, 5 ml/kg, 5% DMAC (dimethylacetamide), 5% Solutol HS 15 (polyethylene glycol-15 hydroxystearate) and 90% saline was intravenously administered via foot dorsal vein and (20 mg/kg, 10 ml/kg, 0.5% CMC-Na solution) was administered via oral gavage to SD rats; (1 mg/kg, 5 ml/kg, 5% DMAC, 5% Solutol HS 15 and 90% Saline) was administered intravenously via tail vein and (5 mg/kg, 10 mL/kg, 0.5% CMC-Na aqueous solution) was administered via oral gavage to CD1 mice.
(§4) Blood collection: firstly, the animals which were selected to meet the test requirements prior to administration were weighed. The rats or mice were bound before the blood collection, blood from each administered rat was taken at predetermined time points (intravenous administration: blood was collected at 0.083, 0.25, 0.5, 1, 2, 4, 8, 24 h before and after administration respectively, 9 time points in total; gavage: blood was collected at 0.083, 0.25, 0.5, 1, 2, 4, 8, 24 h before and after administration respectively, 9 time points in total), about 150 μl of blood was collected via tail vein or heart (blood terminal). Blood from each administered mouse was taken blood at predetermined time points (tail vein: blood was collected at 0.083, 0.25, 0.5, 1, 2, 4, 8, 24 h, 8 time points in total; gavage: blood was collected at 0.25, 0.5, 1, 2, 4, 8, 24 h, 7 time points in total), about 150 μl of blood was collected via orbital or heart (blood terminal). Blood was transferred to a 1.5 ml tube to which K2EDTA was added previously. The collected blood sample was put on ice, and centrifuged to obtain plasma sample (2000 g, 5 min under 4° C.) within 15 minutes. All the plasma samples were stored at approximately −70° C. until analysis.
(§5) LC/MS/MS method was applied to determine the concentrations of the drug. At the same dose and administration, pharmacokinetic parameters of some example compounds of the invention in rats and mice were shown in Table 9: […]

Data set [3] in a line: In vivo pharmacokinetic test in mice. The conditions noted are these: male, CD1, mouse, plasma; for clearance / half-life: IV 1 mg/kg; for clearance: read-out: Clearance CL; for half-life: read-out: Half-life T½ (converted); for bioavailability: oral gavage 5 mg/kg vs IV 1 mg/kg, read-out: Oral relative bioavailability F; for AUC / Cmax: route not given (IV 1 mg/kg, oral gavage 5 mg/kg); for AUC: read-out: Area under the curve AUC; for Cmax: read-out: Maximum plasma concentration Cmax.
Text: as §1, §2, §3, §4, §5

Data set [4] concerns H1975 cells. The experiment in a line: Cytostatic activity by MTT method, H1975 cells. The conditions noted are these: for IC50: Homo sapiens, read-out: H1975 cells (IC50/nM). Type of data set: cell-based.
Protocol: MTT assay used the method well known to those skilled in the art, and the reagents used in the method can be commercially obtained. […] After rinsed for one time, 1.5 ml trypsin/EDTA was added to digest the adherent cells until the cells detached, and then 3.5 ml of medium was added to terminate the trypsinization. The digested cell suspension was transferred to a 15 ml falcon tube, and spun at 1300 rpm for 3 min, the supernatant was discarded, and cells were suspended in fresh medium. […] The plates were spun at 2000 rpm for 5 min.
For data set [5], the system named is H1975 cells. The data set is described as follows: ELISA screening EGFR T790M inhibitor for cell activity, H1975 cells. The format is cell-based. The conditions noted are these: for IC50: Homo sapiens, read-out: H1975 cells (IC50/nM).
Protocol: The reagents, preparation methods of the solution, as well as the procedures of cell treatments and preparation of lysate, and the test steps of ELISA in the following method were conducted according to the instructions of R&D DYC3570, R&D DYC1095E and R&D DYC1095BE.
Cell lysates: cell lysis buffer+10 μg/ml Aprotinin (Sigma), 10 μg/ml Leupeptin (Sigma). All reagents were prepared when using.
(2) The test compounds were diluted according to the method in MTT assay, and 10 μl of diluted compound or DMSO was added to the corresponding plate well, and incubated at 37° C. with 5% CO2 for 1 h. The final concentration of DMSO was 0.5%. Cell culture system merely treated with DMSO was used as cell control.
(3) 100 μl cell lysate was added after aspirating the medium, sealed and placed in a refrigerator at −80° C. overnight. Cell lysis buffer used as blank control.
The assay was operated according to the instructions of R&D DYC1095E or R&D DYC1095BE.
(5) 40 μl of cell lysis buffer and 60 μl of cell lysates were added, and incubated at 25° C. for 2 h under shaking;
(7) Detection antibody was diluted according to a predetermined ratio as stipulated in kit instructions by using IC diluent, and 100 μl of the diluted Detection Antibody was added to each well, and incubated at 25° C. for 1 h under shaking in darkness;
(9) reagent A and reagent B of TMB substrate (R & D DY999) were mixed with 1:1, and 100 μl of substrate was added to each well, and incubated at 25° C. for 20 minutes under shaking in darkness;
(11) The OD450 values and OD570 values of the cell control, blank control and compound treatment were measured respectively by using microplate reader (Thermo Multiskan K3), and the corresponding OD570 values were subtracted from OD450 values of the same wells to get the ODcell, ODblank and ODcompound treatment respectively.
2.3 Data Analysis Inhibition ratio (%)=100%×(ODcell−ODcompound treatment)(ODcell−ODblank)
A further data set deals with NIH3T3 cells. The data set is described as follows: Cytotoxicity by MTT method, NIH3T3 cells.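 Also: cells grown in 96-well plates with compound for 72 h, then given MTT for a further 4 h at 37 °C under 5% CO2.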 The conditions noted are these: Mus musculus, read-out: NIH3T3 cells MTT assay (IC50/nM). Type of data set: cell-based. Background: Tetrazolium dyes change colour on reduction, which living cells bring about.
Data set [6] relates to A431 cells. The experiment in a line: Cytostatic activity by MTT method, A431 cells.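 Also: viability read by MTT reduction after compound exposure, with MTT incubated for a further 4 h at 37 °C under 5% CO2 in 96-well plates.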 The conditions noted are these: Homo sapiens, A-431, 72 h, read-out: A431 cells (IC50/nM).
Protocol: After rinsed for one time, 1.5 ml trypsin/EDTA was added to digest the adherent cells until the cells detached, and then 3.5 ml of medium was added to terminate the trypsinization. The digested cell suspension was transferred to a 15 ml falcon tube, and spun at 1300 rpm for 3 min, the supernatant was discarded, and cells were suspended in fresh medium.
The cells were added into the incubator after addition of the test compound, and incubated for 72 h, 10 μl of 5 mg/ml MTT (Sigma, M5655) solution was added to each well of the plate, and incubated the 96-well plates at 37° C. 5% CO2 for 4 h in a incubator.
The plates were spun at 2000 rpm for 5 min.
For a further data set, the target named is EGFR WT kinase (Homo sapiens (Human), UniProt P00533). The experiment in a line: Wild type EGFR kinase inhibition test (z-lyte). The format is biochemical. The conditions noted are these: 10 μM ATP.
Data set [7] deals with T790M mutant cell line H1975. To be noted: background statement; almost no activity; cited from earlier work.
Where [8] appears, read: A-431, ELISA, compound 1 h then EGF 45 minutes, read-out: A431 cells (IC50/nM).
The mark [9] stands for this setting: NIH3T3, cytotoxicity, MTT, 72 h.

Read-outs that look alike come from different tables or passages of the source.

EGFR WT kinase, sequence (P00533 25-1210): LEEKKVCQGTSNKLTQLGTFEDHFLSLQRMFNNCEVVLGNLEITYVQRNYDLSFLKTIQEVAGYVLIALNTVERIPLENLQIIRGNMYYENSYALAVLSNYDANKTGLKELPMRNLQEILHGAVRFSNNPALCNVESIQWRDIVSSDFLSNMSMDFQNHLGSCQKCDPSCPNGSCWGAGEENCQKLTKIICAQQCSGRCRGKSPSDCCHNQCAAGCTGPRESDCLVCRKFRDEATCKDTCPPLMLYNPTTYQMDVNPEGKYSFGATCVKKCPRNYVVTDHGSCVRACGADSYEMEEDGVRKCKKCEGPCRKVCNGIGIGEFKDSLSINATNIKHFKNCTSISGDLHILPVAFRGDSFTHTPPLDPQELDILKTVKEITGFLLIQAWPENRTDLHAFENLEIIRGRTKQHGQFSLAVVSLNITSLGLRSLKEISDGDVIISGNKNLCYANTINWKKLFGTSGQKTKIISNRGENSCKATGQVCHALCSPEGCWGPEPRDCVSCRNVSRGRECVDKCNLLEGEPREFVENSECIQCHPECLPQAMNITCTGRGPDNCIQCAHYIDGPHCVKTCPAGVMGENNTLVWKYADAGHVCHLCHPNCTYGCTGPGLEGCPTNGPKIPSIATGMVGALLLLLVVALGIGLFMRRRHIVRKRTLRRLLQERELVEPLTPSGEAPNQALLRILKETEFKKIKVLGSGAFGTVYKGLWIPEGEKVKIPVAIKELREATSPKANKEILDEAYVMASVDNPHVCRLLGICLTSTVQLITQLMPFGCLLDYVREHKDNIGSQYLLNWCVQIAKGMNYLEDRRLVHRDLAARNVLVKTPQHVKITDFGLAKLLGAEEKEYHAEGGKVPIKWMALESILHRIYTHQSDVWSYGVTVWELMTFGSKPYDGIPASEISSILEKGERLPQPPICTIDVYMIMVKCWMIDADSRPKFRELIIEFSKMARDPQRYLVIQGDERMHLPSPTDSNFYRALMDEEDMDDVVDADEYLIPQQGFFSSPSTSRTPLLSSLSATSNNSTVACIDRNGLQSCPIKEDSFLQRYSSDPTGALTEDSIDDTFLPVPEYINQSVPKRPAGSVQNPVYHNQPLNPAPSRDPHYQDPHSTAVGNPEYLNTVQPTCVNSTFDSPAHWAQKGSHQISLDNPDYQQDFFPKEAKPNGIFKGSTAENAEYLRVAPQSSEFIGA

The term clearance denotes the rate of elimination divided by the concentration. A word on the half-life: it is the time in which the quantity being followed falls by half. As usually defined, the AUC is the area under the concentration-time curve, a measure of exposure. As for `C=CC(=O)Nc1cc(Nc2ncc(Cl)c(-c3cnn(C)c3)n2)c(OC)cc1N1CCC(N(C)C)CC1` [Compound Z-89, N-(5-(5-chloro-4-(1-methyl-1H-pyrazol-4-yl)pyrimidin-2-ylamino)-2-(4-(dimethylamino)piperidin-1-yl)-4-methoxyphenyl)acrylamide], the IC50 in the data set with A431 cells [1] (setting [8]) stood at 4790 nM; in the data set on H1975 cells [4] (NCI-H1975, MTT, 72 h) it was 19 nM; in the data set with H1975 cells [5] (NCI-H1975, ELISA, compound 1 h), 15 nM; in the data set on NIH3T3 cells (setting [9]), 4040 nM; in the data set with A431 cells [6], 1730 nM. Further, the clearance in data set [2] stood at 43.5 mL/min/kg; in data set [3] it was 47.7 mL/min/kg. The figures for the half-life in [2] and in [3] were 7.05 h and 4.43 h, respectively. For the same molecule, the bioavailability amounted to 102% in data set [2] and 59.7% in data set [3]. Also, the results for the area under the curve (AUC) in data set [2] and in data set [3] were 7190 ng·h/mL and 1040 ng·h/mL, respectively. The Cmax in data set [2] was determined as 437 ng/mL; in data set [3], 85.3 ng/mL.

For the molecule `C=CC(=O)Nc1cc(Nc2ncc(F)c(-c3cnn(C)c3)n2)c(OC)cc1N1CCC(N(C)C)CC1` [Compound Z-90, N-(2-(4-(dimethylamino)piperidin-1-yl)-5-(5-fluoro-4-(1-methyl-1H-pyrazol-4-yl)pyrimidin-2-ylamino)-4-methoxyphenyl)acrylamide], the IC50 with A431 cells [1] (setting [8]) was 1690 nM; in the data set on H1975 cells [4] (NCI-H1975, MTT, 72 h), 17 nM; on EGFR WT kinase it was 102 nM; with H1975 cells [5] (NCI-H1975, ELISA, compound 1 h) it was 34 nM; in the data set with NIH3T3 cells (setting [9]) it was above 10000 nM; with A431 cells [6], 2390 nM. The clearance in [2] came out at 43.9 mL/min/kg; in data set [3], 65.5 mL/min/kg. Also, the half-life is 7.02 h in [2] and 4.65 h in data set [3]. Further, the bioavailability in data set [2] was determined as 92.6%; in data set [3], 66.4%. Further, the values for the exposure (AUC) in [2] and in [3] were 6480 ng·h/mL and 657 ng·h/mL, respectively. Besides, the values for the Cmax in [2] and in [3] were 408 ng/mL and 90.6 ng/mL, respectively. Besides, in the data set on H1975 cells [4] (MTT, ratio of IC50 values), the “selective inhibitory activity against the cell growth [IC50 (A431 cells)/IC50 (H1975 cells)]” value amounted to 140.6. The “Selective inhibitory activities of target on cellular level [IC50 (A431 cells)/IC50 (H1975 cells)]” value in the data set with H1975 cells [5] (ELISA, ratio of IC50 values) is given as 50.

As to `C=CC(=O)Nc1cc(Nc2nccc(-c3cn(C)c4ccccc34)n2)c(OC)cc1N(C)CCN(C)C` [comparative compound 1, reference compound], the IC50 in the data set on A431 cells [1] (A-431, read-out: A431 cells (IC50/nM)) worked out at […]; in the data set with H1975 cells [4] (NCI-H1975, 72 h) it was 13 nM; in the data set with H1975 cells [5] (NCI-H1975, 1 h), 29 nM; with NIH3T3 cells (NIH3T3, 72 h) it was 3550 nM; in the data set with A431 cells [6], […]. The half-life was 8.28 h in data set [2] and 1.99 h in data set [3]. The bioavailability is 18.5% in data set [2] and 30.2% in data set [3].

Regarding `C#Cc1cccc(Nc2ncnc3cc(OCCOC)c(OCCOC)cc23)c1` [erlotinib], the “activity in T790M mutant cell line H1975” value in data set [7] was “greater than 3 uM”.

For the molecule `COc1cc2ncnc(Nc3ccc(F)c(Cl)c3)c2cc1OCCCN1CCOCC1` [gefitinib], in data set [7], the “activity in T790M mutant cell line H1975” value was “greater than 3 uM”.
